Experimental data: US20230391772A1, “METHODS AND COMPOSITIONS FOR TARGETED PROTEIN DEGRADATION” (Ranok Therapeutics (Hangzhou) Co. Ltd., priority 2020, published 2023)

Tests used:
[1] = biological target: T1, HSP90a protein (Homo sapiens, UniProt P07900); assay: HSP90α-binding fluorescent polarization (FP) assay, FITC-geldanamycin probe; conditions: FP competition with FITC-geldanamycin, 5 nM, 120 min at 25° C.
T1 construct: purchased BPS Bioscience 50298
Procedure: HSP90α-Binding Fluorescent Polarization (FP) Assay
Binding of test compounds to HSP90a protein was measured by fluorescent polarization (FP) using the HSP90a (N-terminal) Assay Kit (BPS Bioscience, #50298), following the manufacturer's instructions, except as noted. Fluorescently labeled HSP90-binding compounds, either the provided FITC-geldanamycin (5 nM final concentration) or RNK04010, a triazolone-based HSP90 binding small molecule labeled with BODIPY through a piperizine-phenyl linker (5 nM final concentration) were employed. A 2.5-fold serial dilution of each test compound ranging from 20 μM to 5.2 nM was assayed for binding to HSP90a. After the final step of adding HSP90a protein to each assay well, plates were mixed by brief shaking, incubated at 25° C. for 120 min for FITC-geldanamycin or 300 min for RNK04010, and fluorescence was measured using a PerkinElmer EnVision Plate Reader.

[2] = tested on: MIA PaCa-2 human pancreatic carcinoma; assay: MIA PaCa-2 CCK-8 proliferation assay; format: cell-based; conditions: Homo sapiens, MIA PaCa-2, 72 h, MIA PaCa-2 cells
Outline: (§1)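 Compounds were tested as a 3-fold series from 20 μM down to 1.02 nM in CCK-8 absorbance assays. The lines used were NCI-H23 and NCI-H358, each with 1 KRAS(G12C) copy, and MIA PaCa-2 with 2 copies. Inhibition was derived relative to DMSO controls, with a no-cell blank subtracted.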

[3] = biological target: T1, HSP90a protein; assay: HSP90α-binding fluorescent polarization (FP) assay, BODIPY-labeled RNK04010 probe; conditions: FP competition with RNK04010 (BODIPY-labeled), 5 nM, 300 min at 25° C.
Outline: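 Binding was scored by fluorescence polarization after adding N-terminal HSP90a to wells holding probe and compound, with compound tested from 20 μM to 5.2 nM. Probe-dependent times at 25° C were 120 min for FITC-geldanamycin and 300 min for RNK04010-BODIPY, both at 5 nM final.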

[4] = tested on: NCI-H23 human non-small cell lung cancer; assay: NCI-H23 CCK-8 proliferation assay; format: cell-based; conditions: NCI-H23 cells, 72 hr
Outline: as §1

[5] = tested on: NCI-H358 human non-small cell lung cancer; assay: NCI-H358 CCK-8 proliferation assay; format: cell-based; conditions: NCI-H358 cells, 72 hr
Outline: as §1

[6] = biological target: T2, KRAS(G12C) (Homo sapiens, UniProt P01116, G12C); assay: KRAS(G12C)/SOS1 homogeneous time-resolved fluorescence (HTRF) assay; set-up: purchased Cisbio 63ADK000CB16PEG; conditions: absence of GTP, 4° C. for 3 hr, read-out: KRAS (G12C) binding
Outline: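 Three-hour incubation at 4 °C of 3-fold compound dilutions (lowest 1.02 nM) with KRAS(G12C), SOS1 and detection reagents, GTP absent. Disruption of the KRAS(G12C)/SOS1 complex detected by time-resolved fluorescence.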

[7] = biological target: T2, KRAS(G12C); assay: KRAS(G12C) Western blot protein degradation assay in MIA PaCa-2 cells; format: cell-based; set-up: host or cells: LU65A; conditions: 48 hr
Procedure: The following cancer cell lines were employed: BT-474 human breast carcinoma (ATCC, #HTB-20); MIA PaCa-2 human pancreatic carcinoma [2 copies KRAS(G12C)](ATCC, #CRL-1420); NCI-H23 human non-small cell lung cancer [1 copy KRAS(G12C)](ATCC, #CRL-5800); NCI-H358 human non-small cell lung cancer [1 copy KRAS(G12C)](ATCC, #CRL-5807); LU65A human lung carcinoma (Pharmaron, Beijing, China). Cell lines were cultured essentially according to ATCC and Pharmaron recommendations.
KRAS(G12C) Western Blot Protein Degradation Assay
The MIA PaCa-2 human pancreatic carcinoma cell line and LU65A human lung cancer cell line, which expresses KRAS(G12C), were seeded in 6- or 12-well tissue culture plates, and after 1 hr, test compounds were added at various concentrations and incubated at 37° C./5% CO2 for 48 hr (MIA Paca-2) and 6 hr (LU65A) respectively. Cells were then washed with cold PBS, aspirated and cold RIPA buffer containing a protease/phosphatase inhibitor cocktail was added to lyse cells. After centrifugation, the total protein concentrations of cell lysates were determined using the BCA protein assay. Samples were normalized for equivalent protein concentrations, 5×SDS-PAGE loading buffer added and denatured at 100° C. for 10 min. 20 μl of each sample/well was loaded on a SDS-PAGE gel and electrophoresed for 20 min at 80 V, then 120 V for 1.5 hr. Gels were then electroblotted to nitrocellulose membranes using a wet-transfer method at 250 mA for 2.5 hr. Membranes were incubated with blocking buffer for 1 hr and washed 3 times with TBST for 5 min. Membranes were then incubated with anti-KRAS (Sigma-Aldrich, #SAB1404011) and anti-β-Actin monoclonal antibodies (Cell Signaling Technology, #3700) diluted in blocking buffer at 4° C. overnight per the manufacturer's recommendations. After washing 3 times, blots were incubated with appropriately labeled secondary antibodies for 1 hr at room temperature and washed again. Fluorescence imaging and quantitation was performed using a LI-COR Odyssey. Results was analyzed using GraphPad Prism 7 software. Compound degradation of was determined by the following equation and DC50 values (the concentration at which 50% of the maximal degradation of KRAS occurs) calculated using GraphPad Prism 7 software:
% Inhibition=100−(D−B)/(S−B)*100%. • S: Fluorescence intensity of cells with antibody • D: Fluorescence intensity of compound-treated cells with antibody • B: Fluorescence intensity of cells without antibody

T2 sequence (P01116 1-188 isoform P01116-2 G12C): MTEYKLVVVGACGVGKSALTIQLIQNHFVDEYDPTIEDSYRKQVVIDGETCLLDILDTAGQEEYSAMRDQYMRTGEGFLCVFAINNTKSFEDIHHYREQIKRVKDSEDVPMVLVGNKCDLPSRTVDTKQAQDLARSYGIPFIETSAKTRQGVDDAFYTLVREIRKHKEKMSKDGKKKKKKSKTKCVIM

Structure (SMILES)	IC50 [1] [nM]	EC50 [2] [nM]	IC50 [3] [nM]	EC50 [4] [nM]	EC50 [5] [nM]	IC50 [6] [nM]	also measured
C=C(F)C(=O)N1CCN(c2nc(OC[C@@H]3CCN(CCCOCCC(=O)NCc4ccc(-n5c(O)nnc5-c5cc(C(C)C)c(O)cc5O)cc4)C3)nc3c2CCN(c2cccc4cccc(Cl)c24)C3)C[C@@H]1CC#N [Compound 170]	100 to 1000	> 1000					
C=C(F)C(=O)N1CCN(c2nc(OC[C@@H]3CCN(C(=O)C4CCN(Cc5ccc(-n6c(O)nnc6-c6cc(CC)c(O)cc6O)cc5)CC4)C3)nc3c2CCN(c2cccc4cccc(Cl)c24)C3)C[C@@H]1CC#N [Compound 167, 2-((S)-4-(7-(8-chloronaphthalen-1-yl)-2-(((R)-1-(1-(4-(3-(5-ethyl-2,4-dihydroxyphenyl)-5-hydroxy-4H-1,2,4-triazol-4-yl)benzyl)piperidine-4-carbonyl)pyrrolidin-3-yl)methoxy)-5,6,7,8-tetrahydropyrido[3,4-d]pyrimidin-4-yl)-1-(2-fluoroacryloyl)piperazin-2-yl)acetonitrile]	< 100	100 to 1000					
C=C(F)C(=O)N1CCN(c2nc(OC[C@@H]3CCN(C(=O)c4cc(C(C)C)c(O)cc4O)C3)nc3c2CCN(c2cccc4cccc(Cl)c24)C3)C[C@@H]1CC#N [Compound 171, 2-((S)-4-(7-(8-chloronaphthalen-1-yl)-2-(((R)-1-(2,4-dihydroxy-5-isopropylbenzoyl)pyrrolidin-3-yl)methoxy)-5,6,7,8-tetrahydropyrido[3,4-d]pyrimidin-4-yl)-1-(2-fluoroacryloyl)piperazin-2-yl)acetonitrile]	> 1000	> 1000					
CC(C)c1cc(-c2nnc(O)n2-c2ccc(CN3CCC(C(=O)N4CC[C@@H](COc5nc6c(c(N7CCN(C(N)=O)[C@@H](CC#N)C7)n5)CCN(c5cccc7cccc(Cl)c57)C6)C4)CC3)cc2)c(O)cc1O [Compound 169, (S)-4-(7-(8-chloronaphthalen-1-yl)-2-(((R)-1-(1-(4-(3-(2,4-dihydroxy-5-isopropylphenyl)-5-hydroxy-4H-1,2,4-triazol-4-yl)benzyl)piperidine-4-carbonyl)pyrrolidin-3-yl)methoxy)-5,6,7,8-tetrahydropyrido[3,4-d]pyrimidin-4-yl)-2-(cyanomethyl)piperazine-1-carboxamide]	< 100	100 to 1000					
C=C(F)C(=O)N1CCN(c2nc(OC[C@@H]3CCN(C(=O)C4CCN(Cc5ccc(-n6c(C(N)=O)nnc6-c6cc(C(C)C)c(O)cc6O)cc5)CC4)C3)nc3c2CCN(c2cccc4cccc(Cl)c24)C3)C[C@@H]1CC#N [Compound 166, 4-(4-((4-((R)-3-(((7-(8-chloronaphthalen-1-yl)-4-((S)-3-(cyanomethyl)-4-(2-fluoroacryloyl)piperazin-1-yl)-5,6,7,8-tetrahydropyrido[3,4-d]pyrimidin-2-yl)oxy)methyl)pyrrolidine-1-carbonyl)piperidin-1-yl)methyl)phenyl)-5-(2,4-dihydroxy-5-isopropylphenyl)-4H-1,2,4-triazole-3-carboxamide]	100 to 1000	< 100					

More lines, main results first:

IC50 [1] [nM]	EC50 [2] [nM]	IC50 [3] [nM]	EC50 [4] [nM]	EC50 [5] [nM]	IC50 [6] [nM]	Structure (SMILES)	also measured
	< 100	100 to 1000	100 to 1000	100 to 1000	> 1000	CC(=O)N1CCN(c2nc(NCCC(=O)NCc3ccc(CN4CCC(Cc5ccc(-n6c(C(=O)NCC(F)(F)F)nnc6-c6cc(C(C)C)c(O)cc6O)cc5)CC4)cc3)nc3c2CCN(c2cc(O)cc4ccccc24)C3)CC1 [Compound 54, 4-(4-((1-(4-((3-((4-(4-acetylpiperazin-1-yl)-7-(3-hydroxynaphthalen-1-yl)-5,6,7,8-tetrahydropyrido[3,4-d]pyrimidin-2-yl)amino)propanamido)methyl)benzyl)piperidin-4-yl)methyl)phenyl)-5-(2,4-dihydroxy-5-isopropylphenyl)-N-(2,2,2-trifluoroethyl)-4H-1,2,4-triazole-3-carboxamide, trifluoroacetic acid]	
	100 to 1000	100 to 1000	> 1000	100 to 1000	> 1000	C=CC(=O)N1CCN(c2nc(NCCC(=O)NCCc3ccc(CN4CCC(Cc5ccc(-n6c(C(=O)NCC(F)(F)F)nnc6-c6cc(C(C)C)c(O)cc6O)cc5)CC4)cc3)nc3c2CCN(c2cc(O)cc4ccccc24)C3)CC1 [Compound 24, 4-(4-((1-(4-(2-(3-((4-(4-acryloylpiperazin-1-yl)-7-(3-hydroxynaphthalen-1-yl)-5,6,7,8-tetrahydropyrido[3,4-d]pyrimidin-2-yl)amino)propanamido)ethyl)benzyl)piperidin-4-yl)methyl)phenyl)-5-(2,4-dihydroxy-5-isopropylphenyl)-N-(2,2,2-trifluoroethyl)-4H-1,2,4-triazole-3-carboxamide, trifluoroacetic acid]	
	< 100	> 1000	100 to 1000	100 to 1000	> 1000	C=CC(=O)N1CCN(c2nc(NCCC(=O)N3CCC(Cc4ccc(CN(C)Cc5ccc(-n6c(C(=O)NCC(F)(F)F)nnc6-c6cc(C(C)C)c(O)cc6O)cc5)cc4)CC3)nc3c2CCN(c2cc(O)cc4ccccc24)C3)CC1 [Compound 16, 4-(4-(((4-((1-(3-((4-(4-acryloylpiperazin-1-yl)-7-(3-hydroxynaphthalen-1-yl)-5,6,7,8-tetrahydropyrido[3,4-d]pyrimidin-2-yl)amino)propanoyl)piperidin-4-yl)methyl)benzyl)(methyl)amino)methyl)phenyl)-5-(2,4-dihydroxy-5-isopropylphenyl)-N-(2,2,2-trifluoroethyl)-4H-1,2,4-triazole-3-carboxamide, trifluoroacetic acid]	inhibition at 0.1562 µM ([7]; 156.2 nM): < 33%; inhibition at 0.3125 µM ([7]; 312.5 nM): < 33%; inhibition at 0.625 µM ([7]; 625 nM): < 33%; inhibition at 1.25 µM ([7]; 1250 nM): < 33%; inhibition at 2.5 µM ([7]; 2500 nM): < 33%; inhibition at 5 µM ([7]; 5000 nM): < 33%; inhibition at 10 µM ([7]; 10,000 nM): < 33%
	> 1000	< 100	> 1000	100 to 1000	> 1000	C=CC(=O)N1CCN(c2nc(NCCC(=O)N3CCC(CN4CCN(Cc5ccc(-n6c(O)nnc6-c6cc(C(C)C)c(O)cc6O)cc5)CC4)CC3)nc3c2CCN(c2cc(O)cc4ccccc24)C3)CC1 [Compound 14, 1-(4-(2-((3-(4-((4-(4-(3-(2,4-dihydroxy-5-isopropylphenyl)-5-hydroxy-4H-1,2,4-triazol-4-yl)benzyl)piperazin-1-yl)methyl)piperidin-1-yl)-3-oxopropyl)amino)-7-(3-hydroxynaphthalen-1-yl)-5,6,7,8-tetrahydropyrido[3,4-d]pyrimidin-4-yl)piperazin-1-yl)prop-2-en-1-one, trifluoroacetic acid]	
